Assays:
JAK3 enzyme [1] = biological target: T1, JAK3 enzyme (Homo sapiens, UniProt P52333); test: JAK Caliper Enzyme Assay at 4 μM ATP; format: biochemical
T1 sequence (P52333 1-1124): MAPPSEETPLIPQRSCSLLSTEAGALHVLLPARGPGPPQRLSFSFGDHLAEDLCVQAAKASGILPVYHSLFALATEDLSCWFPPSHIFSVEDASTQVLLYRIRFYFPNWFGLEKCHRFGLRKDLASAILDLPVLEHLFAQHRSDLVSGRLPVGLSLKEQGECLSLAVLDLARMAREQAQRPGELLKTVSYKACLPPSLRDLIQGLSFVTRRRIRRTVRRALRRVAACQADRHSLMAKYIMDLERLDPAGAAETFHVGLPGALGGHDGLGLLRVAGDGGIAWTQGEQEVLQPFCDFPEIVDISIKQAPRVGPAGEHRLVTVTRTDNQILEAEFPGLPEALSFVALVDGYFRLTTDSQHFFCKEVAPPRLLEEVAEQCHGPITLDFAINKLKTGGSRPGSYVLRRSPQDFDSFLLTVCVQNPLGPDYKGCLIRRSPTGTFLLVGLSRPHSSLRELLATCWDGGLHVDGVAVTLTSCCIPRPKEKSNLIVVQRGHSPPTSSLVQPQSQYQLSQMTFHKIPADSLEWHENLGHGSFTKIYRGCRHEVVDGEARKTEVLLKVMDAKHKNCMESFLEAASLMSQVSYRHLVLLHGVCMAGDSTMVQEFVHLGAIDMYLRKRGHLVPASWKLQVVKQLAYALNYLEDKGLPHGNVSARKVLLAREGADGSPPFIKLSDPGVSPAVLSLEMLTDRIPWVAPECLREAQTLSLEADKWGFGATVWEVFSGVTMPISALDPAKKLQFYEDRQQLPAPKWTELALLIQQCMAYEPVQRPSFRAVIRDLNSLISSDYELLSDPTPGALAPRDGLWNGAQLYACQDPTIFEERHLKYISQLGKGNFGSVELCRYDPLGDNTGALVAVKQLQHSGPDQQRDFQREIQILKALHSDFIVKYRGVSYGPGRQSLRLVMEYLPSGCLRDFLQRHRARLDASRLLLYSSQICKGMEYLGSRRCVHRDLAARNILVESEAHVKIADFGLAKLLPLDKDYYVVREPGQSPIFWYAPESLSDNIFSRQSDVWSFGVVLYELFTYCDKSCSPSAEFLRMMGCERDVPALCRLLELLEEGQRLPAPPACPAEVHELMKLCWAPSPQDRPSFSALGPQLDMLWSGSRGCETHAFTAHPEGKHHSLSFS
Description: (§1) Test article was solubilized in dimethyl sulfoxide (DMSO) to a stock concentration of 30 mM. An 11-point half log dilution series was created in DMSO with a top concentration of 600 μM. […] Test article and assay controls were added to a 384-well plate. […] Enzyme concentrations and incubation times were optimized for each new enzyme preps and were modified slightly over time to ensure 20%-30% phosphorylation. […] The assay plates were placed on a Caliper Life Science Lab Chip 3000 (LC3000) instrument, and each well was sampled using appropriate separation conditions to measure the unphosphorylated and phosphorylated peptide.

JAK3 enzyme [2] = biological target: T1, JAK3 enzyme; test: JAK Caliper Enzyme Assay at 1 mM ATP; format: biochemical
Description: as §1

Row | IC50 (JAK3 enzyme [1]) | IC50 (JAK3 enzyme [2]) | SMILES
1 | 55.3 nM | 6460 nM | C=CC(=O)N1C[C@@H](CC)[C@@H](Nc2cnc3[nH]cc(C(=O)NCCOC)c3n2)C1 [Example 257, 2-{[(3R,4R)-1-acryloyl-4-ethylpyrrolidin-3-yl]amino}-N-(2-methoxyethyl)-5H-pyrrolo[2,3-b]pyrazine-7-carboxamide]
2 | 28.9 nM | 4090 nM | C=CC(=O)N1CCN(c2cnc3[nH]cc(C(=O)N[C@@H](C)[C@H](O)c4ccccc4)c3n2)CC1(C)C [Example 156, 2-(4-acryloyl-3,3-dimethylpiperazin-1-yl)-N-[(1R,2S)-1-hydroxy-1-phenylpropan-2-yl]-5H-pyrrolo[2,3-b]pyrazine-7-carboxamide]
3 | 433 nM | > 10000 nM | C=CC(=O)N1C[C@@H](Nc2ncnc3[nH]ccc23)CC[C@H]1COC (single isomer, unassigned) [Example 96]
4 | 46.7 nM | 4840 nM | C=CC(=O)N1CCN(c2cnc3[nH]cc(C(=O)N[C@@H](COC)c4ccccc4)c3n2)CC1(C)C [Example 138, 2-(4-acryloyl-3,3-dimethylpiperazin-1-yl)-N-[(1R)-2-methoxy-1-phenylethyl]-5H-pyrrolo[2,3-b]pyrazine-7-carboxamide]
5 | 1.29 nM | 134 nM | C=CC(=O)N1CCC(Nc2cnc3[nH]cc(C(=O)NCCC(F)(F)F)c3n2)CC1C (racemic) [Example 22, Cis-racemic 2-{[1-acryloyl-2-methylpiperidin-4-yl]amino}-N-(3,3,3-trifluoropropyl)-5H-pyrrolo[2,3-b]pyrazine-7-carboxamide]
6 | 5.31 nM | 697 nM | C=CC(=O)N1CCC(Oc2cnc3[nH]cc(C(=O)N[C@H](C(C)C)[C@@H](O)C(F)(F)F)c3n2)CC1 [Example 202, 2-[(1-acryloylpiperidin-4-yl)oxy]-N-[(2R,3R)-1,1,1-trifluoro-2-hydroxy-4-methylpentan-3-yl]-5H-pyrrolo[2,3-b]pyrazine-7-carboxamide]
7 | 45.1 nM | 6550 nM | C=CC(=O)N1CC(Nc2cnc3[nH]cc(C(=O)NCC(C)C)c3n2)C2(CC2)C1 (stereo not drawn) [Example 236, 2-[(5-acryloyl-5-azaspiro[2.4]hept-7-yl)amino]-N-(2-methylpropyl)-5H-pyrrolo[2,3-b]pyrazine-7-carboxamide]
8 | 14.9 nM | 3530 nM | C=CC(=O)N1CCC(Oc2cnc3[nH]cc(-c4ncn(C)n4)c3n2)CC1 [Example 126, 1-(4-{[7-(1-Methyl-1H-1,2,4-triazol-3-yl)-5H-pyrrolo[2,3-b]pyrazin-2-yl]oxy}piperidin-1-yl)prop-2-en-1-one]
9 | 6.99 nM | 734 nM | C=CC(=O)N1CCC(Oc2cnc3[nH]cc(C(=O)NC[C@@]4(O)CCCC[C@H]4F)c3n2)CC1 [Example 208, 2-[(1-acryloylpiperidin-4-yl)oxy]-N-{[(2R)-2-fluoro-1-hydroxycyclohexyl]methyl}-5H-pyrrolo[2,3-b]pyrazine-7-carboxamide]
10 | 16.5 nM | 2700 nM | C=CC(=O)N1CCC(Oc2cnc3[nH]cc(C(=O)NC4CCCC(F)(F)C4)c3c2)CC1 (stereo not drawn) [Example 339, 5-[(1-acryloylpiperidin-4-yl)oxy]-N-(3,3-difluorocyclohexyl)-1H-pyrrolo[2,3-b]pyridine-3-carboxamide]
11 | 7.82 nM | 1880 nM | C=CC(=O)N1CCC(Oc2cnc3[nH]cc(-c4ncn(CC)n4)c3n2)CC1 [Example 125, 1-(4-{[7-(1-Ethyl-1H-1,2,4-triazol-3-yl)-5H-pyrrolo[2,3-b]pyrazin-2-yl]oxy}piperidin-1-yl)prop-2-en-1-one]
12 | 3.79 nM | 857 nM | C=CC(=O)N1C[C@H](CC)[C@H](Nc2cnc3[nH]cc(C(=O)NCC)c3n2)C1 [Example 241, 2-{[(3S,4S)-1-acryloyl-4-ethylpyrrolidin-3-yl]amino}-N-ethyl-5H-pyrrolo[2,3-b]pyrazine-7-carboxamide]
13 | 12.2 nM | 1370 nM | C=CC(=O)N1CCN(c2cnc3[nH]cc(C(=O)N[C@@H](CO)c4ccc(F)cc4)c3n2)CC1(C)C [Example 146, 2-(4-acryloyl-3,3-dimethylpiperazin-1-yl)-N-[(1R)-1-(4-fluorophenyl)-2-hydroxyethyl]-5H-pyrrolo[2,3-b]pyrazine-7-carboxamide]
14 | 18.4 nM | 1930 nM | C=CC(=O)N1CCN(c2cnc3[nH]cc(C(=O)N[C@H](CO)[C@@H](C)CC)c3n2)CC1(C)C [Example 145, 2-(4-acryloyl-3,3-dimethylpiperazin-1-yl)-N-[(2S,3S)-1-hydroxy-3-methylpentan-2-yl]-5H-pyrrolo[2,3-b]pyrazine-7-carboxamide]
15 | 4.99 nM | 802 nM | C=CC(=O)N1CCC(Nc2cnc3[nH]cc(C(=O)NCC(C)(C)C)c3n2)CC1C (racemic) [Example 267, Racemic-2-[(1-acryloyl-2-methylpiperidin-4-yl)amino]-N-(2,2-dimethylpropyl)-5H-pyrrolo[2,3-b]pyrazine-7-carboxamide]
16 | 0.408 nM | 46 nM | C=CC(=O)N1CC[C@@H](OC)[C@@H](Nc2cnc3[nH]cc(C(=O)N[C@H](C)COC)c3n2)C1 (single isomer, unassigned) [Example 5]
17 | 4.81 nM | 731 nM | C=CC(=O)N1CCN(c2cnc3[nH]cc(C(=O)N[C@@H]4C[C@H]4C(F)(F)F)c3n2)C[C@@H]1CC(C)C [Example 303, 2-[(3S)-4-acryloyl-3-(2-methylpropyl)piperazin-1-yl]-N-[(1R,2R)-2-(trifluoromethyl)cyclopropyl]-5H-pyrrolo[2,3-b]pyrazine-7-carboxamide]
18 | 7.31 nM | 845 nM | C=CC(=O)N1CCN(c2cnc3[nH]cc(C(=O)N[C@H](C)COCc4ccccc4)c3n2)CC1(C)C [Example 169, 2-(4-acryloyl-3,3-dimethylpiperazin-1-yl)-N-[(2R)-1-(benzyloxy)propan-2-yl]-5H-pyrrolo[2,3-b]pyrazine-7-carboxamide]
19 | 52.3 nM | 4500 nM | C=CC(=O)N1CCC(Nc2cnc3[nH]cc(C(=O)NCC)c3c2)CC1 [Example 352, 5-((1-acryloylpiperidin-4-yl)amino)-N-ethyl-1H-pyrrolo[2,3-b]pyridine-3-carboxamide]
20 | 6.77 nM | 621 nM | C=CC(=O)N1CCCC(Nc2cnc3[nH]cc(C(=O)NCC)c3n2)C1 (single isomer, unassigned) [Example 35]
21 | 14.7 nM | 2550 nM | C=CC(=O)N1CCC(Oc2cnc3[nH]cc(-c4n[nH]c(C(C)C)n4)c3n2)CC1 [Example 116, 1-[4-({7-[5-(Propan-2-yl)-1H-1,2,4-triazol-3-yl]-5H-pyrrolo[2,3-b]pyrazin-2-yl}oxy)piperidin-1-yl]prop-2-en-1-one]
22 | 9.43 nM | 1080 nM | C=CC(=O)N1CCC(Nc2cnc3[nH]cc(S(=O)(=O)NC(C)C)c3n2)CC1 [Example 127, 2-[(1-Acryloylpiperidin-4-yl)amino]-N-(propan-2-yl)-5H-pyrrolo[2,3-b]pyrazine-7-sulfonamide]
23 | 12.4 nM | 1020 nM | C=CC(=O)N1CCN(c2cnc3[nH]cc(C(=O)NCC(F)(F)F)c3n2)CC1(C)C [Example 286, 2-(4-acryloyl-3,3-dimethylpiperazin-1-yl)-N-(2,2,2-trifluoroethyl)-5H-pyrrolo[2,3-b]pyrazine-7-carboxamide]

Row | SMILES | IC50 (JAK3 enzyme [1]) | IC50 (JAK3 enzyme [2])
24 | C=CC(=O)N1CCC(Oc2cnc3[nH]cc(C(C)O)c3n2)CC1 (racemic) [Example 117] | 11.9 nM | 1490 nM
